This note sets out measurements from ChEMBL document CHEMBL1759924, “Natural products-based insecticidal agents 9. Design, semisynthesis and insecticidal activity of 28-acyloxy derivatives of toosendanin against Mythimna separata Walker in vivo” (2011).

The subject of assay [1] is Mythimna separata. Kind of assay: Insecticidal activity against Mythimna separata assessed as slim and wrinkled body during larval period upto 48 hrs. The class given is functional, organism-based.
The test system of assay [2] is Mythimna separata. The assay is described as follows: Insecticidal activity against Mythimna separata Walker assessed as mortality rate at 1 mg/mL after 20 days by leaf dipping method. The class given is functional.
For assay [3], the system named is Mythimna separata. The assay is described as follows: Insecticidal activity against Mythimna separata Walker assessed as mortality rate at 1 mg/mL after 10 days by leaf dipping method. Format: functional.
For assay [4], the system named is Mythimna separata. The assay is described as follows: Insecticidal activity against Mythimna separata Walker assessed as mortality at 1 mg/mL by leaf dipping method. Format: functional, organism-based. Conditions: TDE = time-dependent effect.
Assay [5] has as its system Mythimna separata. The assay is described as follows: Insecticidal activity against Mythimna separata Walker assessed as mortality rate at 1 mg/mL after 35 days by leaf dipping method. The class given is functional.
In assay [6] the test system is Mythimna separata. Kind of assay: Insecticidal activity against Mythimna separata larvae assessed as malformed pupae during pupation period at day 19. The class given is functional, organism-based.
Assay [7] has as its system Mythimna separata. The assay is described as follows: Insecticidal activity against Mythimna separata assessed as malformed moths with imperfect wings at day 27. The class given is functional, organism-based.

The source made the active and inactive calls. The calls are words filed in the database; no cut-off is given here.

On to `CC(=O)O[C@H]1OC[C@@]23[C@H]4C(=O)[C@H](OC(C)=O)[C@@]5(C)C(c6ccoc6)C[C@H]6O[C@]65[C@]4(C)[C@H](O)C[C@H]2[C@]1(C)[C@H](OC(C)=O)C[C@@H]3O` (single isomer, unassigned), for which the result in the assay on Mythimna separata [1] and with Mythimna separata [6] was Active. Also, the Activity was 26.9% in the assay on Mythimna separata [2], 24.1% in the assay with Mythimna separata [3], “tde” with Mythimna separata [4] and 50% in the assay with Mythimna separata [5].
With `CCC(=O)O[C@H]1OC[C@@]23[C@H]4C(=O)[C@H](OC(C)=O)[C@@]5(C)C(c6ccoc6)C[C@H]6O[C@]65[C@]4(C)[C@H](O)C[C@H]2[C@]1(C)[C@H](OC(C)=O)C[C@@H]3O` (single isomer, unassigned), the outcome in the assay with Mythimna separata [1] was Active. Also, the Activity in the assay with Mythimna separata [2] is 30.8%; in the assay with Mythimna separata [3], 24.1%; with Mythimna separata [4], “tde”; in the assay on Mythimna separata [5] it was 53.9%.
`CCCC(=O)O[C@H]1OC[C@@]23[C@H]4C(=O)[C@H](OC(C)=O)[C@@]5(C)C(c6ccoc6)C[C@H]6O[C@]65[C@]4(C)[C@H](O)C[C@H]2[C@]1(C)[C@H](OC(C)=O)C[C@@H]3O` (single isomer, unassigned): the Activity was 42.3% in the assay on Mythimna separata [2], 31% in the assay with Mythimna separata [3], “tde” with Mythimna separata [4] and 73.1% with Mythimna separata [5]. Also, the result in the assay on Mythimna separata [6] was Active.
For `CC(=O)O[C@@H]1C[C@H](O)[C@@]23CO[C@H](OC(=O)c4ccccc4)[C@]1(C)[C@@H]2C[C@@H](O)[C@]1(C)[C@@H]3C(=O)[C@H](OC(C)=O)[C@@]2(C)C(c3ccoc3)C[C@H]3O[C@@]312` (single isomer, unassigned), the Activity in the assay on Mythimna separata [2] is 23.1%; with Mythimna separata [3], 20.7%; in the assay with Mythimna separata [4], “tde”; with Mythimna separata [5], 46.2%. Moreover, the outcome in the assay with Mythimna separata [7] was Active.
Consider `CC(=O)O[C@@H]1C[C@H](O)[C@@]23CO[C@H](OC(=O)c4ccc(Cl)cc4)[C@]1(C)[C@@H]2C[C@@H](O)[C@]1(C)[C@@H]3C(=O)[C@H](OC(C)=O)[C@@]2(C)C(c3ccoc3)C[C@H]3O[C@@]312` (single isomer, unassigned), for which the result in the assay on Mythimna separata [1] and in the assay on Mythimna separata [6] was Active. Besides, the Activity is 26.9% with Mythimna separata [2], 20.7% in the assay with Mythimna separata [3], “tde” with Mythimna separata [4] and 50% in the assay with Mythimna separata [5].
In the case of `CC(=O)O[C@@H]1C[C@H](O)[C@@]23CO[C@H](OC(=O)c4cccc(Cl)c4)[C@]1(C)[C@@H]2C[C@@H](O)[C@]1(C)[C@@H]3C(=O)[C@H](OC(C)=O)[C@@]2(C)C(c3ccoc3)C[C@H]3O[C@@]312` (single isomer, unassigned), the Activity with Mythimna separata [2] was 34.6%; in the assay with Mythimna separata [3], 27.6%; in the assay with Mythimna separata [4], “tde”; in the assay with Mythimna separata [5], 46.2%. For the same compound, in the assay on Mythimna separata [7], the outcome was Active.
On to `CC(=O)O[C@@H]1C[C@H](O)[C@@]23CO[C@H](OC(=O)c4ccccc4Cl)[C@]1(C)[C@@H]2C[C@@H](O)[C@]1(C)[C@@H]3C(=O)[C@H](OC(C)=O)[C@@]2(C)C(c3ccoc3)C[C@H]3O[C@@]312` (single isomer, unassigned), for which the outcome in the assay on Mythimna separata [1] and with Mythimna separata [7] was Active. Further, the Activity in the assay on Mythimna separata [2] was 23.1%; in the assay with Mythimna separata [3], 20.7%; in the assay on Mythimna separata [4], “tde”; in the assay on Mythimna separata [5], 38.5%.
As to `COc1ccc(C(=O)O[C@H]2OC[C@@]34[C@H]5C(=O)[C@H](OC(C)=O)[C@@]6(C)C(c7ccoc7)C[C@H]7O[C@]76[C@]5(C)[C@H](O)C[C@H]3[C@]2(C)[C@H](OC(C)=O)C[C@@H]4O)cc1` (single isomer, unassigned), the Activity in the assay on Mythimna separata [2] was 26.9%; with Mythimna separata [3] it was 20.7%; in the assay with Mythimna separata [4], “tde”; with Mythimna separata [5] it was 42.3%.
As to `CC(=O)O[C@@H]1C[C@H](O)[C@@]23CO[C@H](OC(=O)c4ccc([N+](=O)[O-])cc4)[C@]1(C)[C@@H]2C[C@@H](O)[C@]1(C)[C@@H]3C(=O)[C@H](OC(C)=O)[C@@]2(C)C(c3ccoc3)C[C@H]3O[C@@]312` (single isomer, unassigned), the Activity is 26.9% in the assay with Mythimna separata [2], 24.2% in the assay on Mythimna separata [3], “tde” with Mythimna separata [4] and 42.3% in the assay with Mythimna separata [5]. In addition, the outcome in the assay on Mythimna separata [7] was Active.
As for `CC(=O)O[C@@H]1C[C@H](O)[C@@]23CO[C@H](OC(=O)/C=C/c4ccccc4)[C@]1(C)[C@@H]2C[C@@H](O)[C@]1(C)[C@@H]3C(=O)[C@H](OC(C)=O)[C@@]2(C)C(c3ccoc3)C[C@H]3O[C@@]312` (single isomer, unassigned), the Activity is 38.5% in the assay on Mythimna separata [2], 20.7% in the assay on Mythimna separata [3], “tde” in the assay on Mythimna separata [4] and 61.5% in the assay on Mythimna separata [5]. For the same compound, the result with Mythimna separata [6] was Active.
With `CC(=O)O[C@@H]1C[C@H](O)[C@@]23CO[C@H](OC(=O)CCc4ccccc4)[C@]1(C)[C@@H]2C[C@@H](O)[C@]1(C)[C@@H]3C(=O)[C@H](OC(C)=O)[C@@]2(C)C(c3ccoc3)C[C@H]3O[C@@]312` (single isomer, unassigned), the Activity in the assay with Mythimna separata [2] was 30.8%; in the assay with Mythimna separata [3] it was 20.7%; in the assay on Mythimna separata [4], “tde”; in the assay with Mythimna separata [5] it was 53.9%. In addition, the result in the assay on Mythimna separata [7] was Active.
Take `CC(=O)O[C@@H]1C[C@H](O)[C@@]23CO[C@H](OC(=O)Cc4ccccc4)[C@]1(C)[C@@H]2C[C@@H](O)[C@]1(C)[C@@H]3C(=O)[C@H](OC(C)=O)[C@@]2(C)C(c3ccoc3)C[C@H]3O[C@@]312` (single isomer, unassigned): the Activity is 26.9% with Mythimna separata [2], 24.1% in the assay on Mythimna separata [3], “tde” with Mythimna separata [4] and 42.3% in the assay with Mythimna separata [5].
Take `CC(=O)O[C@@H]1C[C@H](O)[C@@]23CO[C@@H](O)[C@]1(C)[C@@H]2C[C@@H](O)[C@]1(C)[C@@H]3C(=O)[C@H](OC(C)=O)[C@@]2(C)[C@H](c3ccoc3)C[C@H]3O[C@]321` [TOOSENDANIN]: the Activity with Mythimna separata [2] is 30.8%; in the assay on Mythimna separata [3] it was 24.1%; with Mythimna separata [4], “tde”; in the assay on Mythimna separata [5], 50%.
